Source: patent US20240216410A1, “METHODS AND COMPOSITIONS FOR TREATING CANCER THERAPY-INDUCED NEUTROPENIC FEVER AND/OR GVHD” (BOARD OF REGENTS, THE UNIVERSITY OF TEXAS SYSTEM, priority 2021, published 2024)

Experiments:
[1] = Meropenem concentrations in cecal contents after subcutaneous injection (LC-MS); format: in vivo, mice; conditions: 4, 8, 24, 48 and 96 hours
Protocol: (§1) To further explore a potential causal relationship between meropenem and intestinal GVHD, the effects of meropenem on GVHD in a mouse model of allo-HSCT were examined. A method of administering meropenem to mice was first developed that would better mimic the effects of meropenem on the intestinal microbiome of patients, which is typically given every 8 hours intravenously. Previously, antibiotics were administered subcutaneously to mice (25), and meropenem concentrations were quantified in the cecal lumen of mice 4, 8, 24, 48 and 96 hours after subcutaneous injection. […] Next, drinking water was evaluated as a means of continuously administering meropenem to mice, using bacterial density quantified by 16S ribosomal RNA (16S rRNA) gene quantitative PCR (qPCR) to gauge reductions of the intestinal microbiota.
Pharmacokinetics of meropenem by Triple Quadruple liquid chromatography-mass spectrometry (LC-MS). C57BL/6 mice were treated with 10 mg of meropenem by subcutaneously injection. Cecal contents were collected prior to, 4, 8, 24, 48, and 96 hours after meropenem injection. To determine the relative abundance of meropenem in mouse cecum samples, extracts were prepared and analyzed with a THERMO […]™ TSQ […]™ triple quadruple mass spectrometer coupled with a DIONEX™ ULTIMATE™ 3000 HPLC system. […]

[2] = test system: murine BT GH2 β-galactosidase, GH33 sialidase, GH29 α-L-fucosidase; assay: RNA sequencing of stool from allo-HSCT mice: BT PUL expression; format: in vivo, Bacteroides thetaiotaomicron; conditions: day 18, allo-HSCT mice with vs without meropenem
Protocol: Thus, in some cases, meropenem treatment during GVHD may lead to alterations in the behavior of BT. To evaluate this further, RNA sequencing of stool samples from allo-HSCT mice without and with meropenem treatment was performed. Also examined was the genome of mouse-derived BT isolate MDA-JAX BT001 (FIG. 23), and open reading frames (ORF) were identified, which were then assigned to polysaccharide utilization loci (PUL) using the Polysaccharide-Utilization Loci DataBase (PULDB) (41).
RNA sequencing and analysis. Approximately 30 mg of stool was freshly collected in 700 μL of ice cold QIAZOL® containing 200 μL of 0.1 mm diameter Zirconia Silica beads (11079101z, BioSpec). Samples were bead beaten twice for 2 min with a 30 second interval recovery. Samples were then centrifuged at 12,000 g for 1 min and the supernatant was collected for RNA isolation using the RNeasy mini kit (74104, QIAGEN®). […] RNA quantity and quality was determined using an Agilent 4200 TapeStation system (Agilent). […] The cDNA libraries were sequenced on the […]® MISEQ™ system to produce 1×300 bp single-end reads, resulting in ˜1 million reads per sample. […] The total reads of mouse stool samples were 950923±113406 (mean±standard deviation). […] Aligned mRNA expression changes were calculated using the Mann-Whitney U test in R software version 3.6.0 via RStudio version 1.2.1335. […]

[3] = Meropenem concentration in stool of mice given meropenem in drinking water; format: in vivo; conditions: mouse, oral; 0.625 g/L in drinking water; normal SPF mice; stool 48 hours after starting; median±SE; read-out: meropenem concentration in fecal samples
Protocol: as §1
Murine isolates of Enterococcus faecalis (MDA-JAX EF001), Clostridium disporicum (MDA-JAX CD001), Clostridium saudiense (MDA-JAX CS001), and Lachnospiraceae unclassified (MDA-JAX LS001) were also tested.
Antibiotics administration.

[4] = human, in vivo
Protocol: In this study, data from 295 patients with acute myeloid leukemia (AML) or myelodysplastic syndrome (MDS) who underwent allo-HSCT with tacrolimus and methotrexate as GVHD prophylaxis following conditioning therapy with fludarabine and 5 busulfan from 2011 to 2016 were retrospectively examined. The incidence of acute intestinal GVHD until day 100 after transplant was evaluated and compared were patients who received neither cefepime nor meropenem, those who received cefepime alone, those who received meropenem alone, and those who received both cefepime and meropenem during the period from days −10 to 30 relative to allo-HSCT infusion.
Retrospective study design. 295 patients with acute myeloid leukemia (AML) or myelodysplastic syndrome (MDS) underwent allogeneic hematopoietic stem cell transplantation (allo-HSCT) with fludarabine plus busulfan as conditioning therapy and tacrolimus and methotrexate as GVHD prophylaxis from 2011 and 2016 and were analyzed retrospectively. Patients were classified by antibiotic exposures, including those who received neither cefepime nor meropenem, those who received cefepime alone, those who received meropenem alone and those who received both cefepime and meropenem from day −10 to day 30 after allo-HSCT. Acute GVHD was diagnosed by clinical and/or pathological findings, and graded according to standard criteria (56).

intestinal microbiota = assay: Fecal bacterial density by 16S rRNA gene qPCR in normal mice given meropenem in drinking water; format: in vivo; conditions: 0.625 g/L meropenem in drinking water
Protocol: as §1
Quantification of fecal bacterial density. Genomic DNA was isolated from stool as described above. qPCR was performed as previously described (66). In brief, 16S rRNA gene sequences were amplified from total fecal DNA using the primers 926F (5′-[…]-3′, where K is a G or a T; SEQ ID NO:2) and 1062R (5′-[…]-3′, where R is an A or a G; SEQ ID NO:3). […] To determined bacterial density, a plasmid with a 16S rRNA gene of a murine Blautia isolate was generated in the pCR4 backbone and used as a standard.

C[C@@H](O)[C@H]1C(=O)N2C(C(=O)O)=C(S[C@@H]3CN[C@H](C(=O)N(C)C)C3)[C@H](C)[C@H]12 [meropenem]
meropenem concentrations in the cecum [1]: increase in meropenem concentrations in the cecum at 4 hours after injection, which rapidly declined thereafter
expression in murine BT of GH2 β-galactosidase, GH33 sialidase and GH29 α-L-fucosidase [2]: upregulated expression
concentration at 48 h [3]: 110 ± 70 ng/g
Acute GVHD Grade 0, number of patients [4]: 13
Acute GVHD Grade 0, percentage of patients [4]: (41%)
Acute GVHD Grade I, number of patients [4]: 5
Acute GVHD Grade I, percentage of patients [4]: (16%)
Acute GVHD Grade II, number of patients [4]: 10
Acute GVHD Grade II, percentage of patients [4]: (31%)
incidence of acute intestinal GVHD [4]: significantly higher
Acute GVHD Grade III-IV, number of patients ([4]; iv): 4
Acute GVHD Grade III-IV, percentage of patients ([4]; iv): (13%)
reduction in fecal bacterial density (intestinal microbiota): substantial one-log reduction in fecal bacterial density
